Legend:
Assay in all cases: combination Emax (second highest fraction inhibited in the dose matrix, 72 h); higher = more inhibition; extreme values may be limits of the assay
CHP-212 (Neuroblastoma) = system: CHP-212 (Neuroblastoma)
Outline: (§1)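 After 24 hours at 37°C and 5% CO2 in 1536-well plates, cells in DMEM/F12 or RPMI plus 10% FBS received two-drug dose matrices for 72 hours. Viability came from CellTiter-Glo 2.0 luminescence and was scaled as inhibition, anchored at 0 by vehicle wells and at 1 by blank wells. Combination Emax is taken as the second-highest inhibition in the matrix, and Bliss excess as the observed combination effect less EA + EB − EA·EB, with EA and EB the single-agent effects.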

[1] = system: DiFi (Colorectal Carcinoma)
Outline: as §1

ES1 (Ewing's Sarcoma) = system: ES1 (Ewing's Sarcoma)
Outline: as §1

ES8 (Ewing's Sarcoma) = system: ES8 (Ewing's Sarcoma)
Outline: as §1

[2] = system: GR-ST (B-Lymphoblastic Leukemia)
Outline: as §1

[3] = system: HDQ-P1 (Breast Carcinoma)
Outline: as §1

[4] = system: HL-60 (Acute Myeloid Leukemia)
Outline: as §1

[5] = system: K-562 (Chronic Myelogenous Leukemia)
Outline: as §1

[6] = system: KARPAS-45 (T-Lymphoblastic Leukemia)
Outline: as §1

[7] = system: KM12 (Colorectal Carcinoma)
Outline: as §1

[8] = system: L-540 (Hodgkin's Lymphoma)
Outline: as §1

[9] = system: MFM-223 (Breast Carcinoma)
Outline: as §1

[10] = system: MOLT-16 (T-Lymphoblastic Leukemia)
Outline: as §1

[11] = system: P12-ICHIKAWA (T-Lymphoblastic Leukemia)
Outline: as §1

[12] = system: SR (Other Blood Carcinomas)
Outline: as §1

[13] = system: SU-DHL-8 (B-Cell Non-Hodgkin's Lymphoma)
Outline: as §1

[14] = system: SW1417 (Colorectal Carcinoma)
Outline: as §1

[15] = system: TE-6 (Esophageal Squamous Cell Carcinoma)
Outline: as §1

[16] = system: TOV-112D (Ovarian Carcinoma)
Outline: as §1

WIL2-NS (Non-Cancerous) = system: WIL2-NS (Non-Cancerous)
Outline: as §1

Row | Structure (SMILES) | combination Emax (CHP-212 (Neuroblastoma)) | combination Emax [1] | combination Emax (ES1 (Ewing's Sarcoma)) | combination Emax (ES8 (Ewing's Sarcoma)) | combination Emax [2] | combination Emax [3] | combination Emax [4] | combination Emax [5] | combination Emax [6] | combination Emax [7] | combination Emax [8] | combination Emax [9] | combination Emax [10] | combination Emax [11] | combination Emax [12] | combination Emax [13] | combination Emax [14] | combination Emax [15] | combination Emax [16] | combination Emax (WIL2-NS (Non-Cancerous))
1 | NC1(C(=O)N[C@@H](CCO)c2ccc(Cl)cc2)CCN(c2ncnc3[nH]ccc23)CC1 [Capivasertib] + C[C@@H]1COCCN1C2=NC(=NC(=C2)C3(CC3)[S@](=N)(=O)C)C4=C5C=CNC5=NC=C4 [AZD6738] (first compound max 10 µM, 7x7, partner max 10 µM) | 0.829 | 0.779 | 0.972 | 0.961 | 0.809 | 0.422 | 0.805 | 0.866 | 0.854 | 0.91 | 0.94 | 0.888 | 1 | 1 | 0.954 | 0.964 | 0.497 | 0.754 | 0.718 | 0.919
2 | Cn1cnc2c(F)c(Nc3ccc(Br)cc3Cl)c(C(=O)NOCCO)cc21 [Selumetinib] + CCN(CCO)CCCOc1ccc2c(Nc3cc(CC(=O)Nc4cccc(F)c4)[nH]n3)ncnc2c1 [AZD2811] (first compound max 10 µM, 7x7, partner max 1 µM) | 0.972 | 0.813 | 0.532 | 0.996 | 0.316 | 0.393 | 0.918 | 0.32 | 0.926 | 0.676 | 0.194 | 0.17 | 1 | 1 | 0.942 | 0.354 | 0.559 | 0.353 | 0.349 | 0.259
3 | NC1(C(=O)N[C@@H](CCO)c2ccc(Cl)cc2)CCN(c2ncnc3[nH]ccc23)CC1 [Capivasertib] + COc1nnc2ccc(N3CCC(c4ccc(OCCN5CCN(C)C(=O)[C@H]5C)cc4)CC3)nn12 [AZD5153] (first compound max 10 µM, 7x7, partner max 1 µM) | 0.932 | 0.718 | 0.694 | 0.798 | 0.832 | 0.416 | 1 | 0.528 | 1 | 0.847 | 0.605 | 0.852 | 1 | 0.994 | 0.769 | 0.899 | 0.482 | 0.754 | 0.665 | 0.848
4 | COc1cc2ncnc(Nc3ccc(F)c(Cl)c3)c2cc1OCCCN1CCOCC1 [Gefitinib] + CC(C)n1c(=O)n(C)c2cnc3cc(F)c(-c4ccc(OCCCN5CCCCC5)nc4)cc3c21 [AZD1390] (first compound max 10 µM, 7x7, partner max 0.3 µM) | 0.157 | 0.919 | 0.353 | 0.178 | 0.39 | 0.383 | 0.0178 | 0.13 | 0.644 | 0.044 | 0.451 | 0.121 | 0.363 | 0.144 | 0.2 | 0.142 | 0.164 | 0.685 | 0.276 | 0.397
5 | COc1nnc2ccc(N3CCC(c4ccc(OCCN5CCN(C)C(=O)[C@H]5C)cc4)CC3)nn12 [AZD5153] + Cc1c2c(nn1C)CSCc1cc(n(C)n1)CSc1cc(c3ccccc3c1)OCCCc1c(C(=O)O)n(C)c3c-2c(Cl)ccc13 [AZD5991] (first compound max 1 µM, 7x7, partner max 1 µM) | 1 | 0.768 | 0.955 | 0.891 | 0.798 | 0.412 | 1 | 0.5 | 1 | 0.648 | 1 | 0.587 | 1 | 1 | 0.968 | 0.998 | 0.459 | 0.77 | 0.986 | 0.849
6 | CC1(C)CCC(CN2CCN(c3ccc(C(=O)NS(=O)(=O)c4ccc(NCC5CCOCC5)c([N+](=O)[O-])c4)c(Oc4cnc5[nH]ccc5c4)c3)CC2)=C(c2ccc(Cl)cc2)C1 [Venetoclax] + Cc1cc2ncnn2cc1Nc1ncc2c(n1)n(C1CCOCC1)c(=O)n2C [AZD7648] (first compound max 1 µM, 7x7, partner max 10 µM) | 0.314 | 0.246 | 0.46 | 0.427 | 0.679 | 0.189 | 0.778 | 0.339 | 0.6 | 0.21 | 0.787 | 0.161 | 0.855 | 0.298 | 0.82 | 0.354 | 0.25 | 0.432 | 0.315 | 0.77
7 | CC1(C)CCC(CN2CCN(c3ccc(C(=O)NS(=O)(=O)c4ccc(NCC5CCOCC5)c([N+](=O)[O-])c4)c(Oc4cnc5[nH]ccc5c4)c3)CC2)=C(c2ccc(Cl)cc2)C1 [Venetoclax] + C[C@@H]1COCCN1C2=NC(=NC(=C2)C3(CC3)[S@](=N)(=O)C)C4=C5C=CNC5=NC=C4 [AZD6738] (first compound max 1 µM, 7x7, partner max 10 µM) | 0.792 | 0.81 | 0.942 | 0.934 | 0.762 | 0.399 | 0.933 | 0.788 | 0.941 | 0.641 | 0.959 | 0.752 | 1 | 0.986 | 0.973 | 0.99 | 0.391 | 0.67 | 0.656 | 0.997
8 | CC(=O)c1c(C)c2cnc(Nc3ccc(N4CCNCC4)cn3)nc2n(C2CCCC2)c1=O [Palbociclib] + Cc1c2c(nn1C)CSCc1cc(n(C)n1)CSc1cc(c3ccccc3c1)OCCCc1c(C(=O)O)n(C)c3c-2c(Cl)ccc13 [AZD5991] (first compound max 10 µM, 7x7, partner max 1 µM) | 0.882 | 0.548 | 0.917 | 0.65 | 0.719 | 0.263 | 0.994 | 0.132 | 0.99 | 0.752 | 0.981 | 0.388 | 1 | 0.83 | 0.993 | 0.683 | 0.229 | 0.425 | 0.776 | 0.737
9 | Cc1c2c(nn1C)CSCc1cc(n(C)n1)CSc1cc(c3ccccc3c1)OCCCc1c(C(=O)O)n(C)c3c-2c(Cl)ccc13 [AZD5991] + C=CCn1c(=O)c2cnc(Nc3ccc(N4CCN(C)CC4)cc3)nc2n1-c1cccc(C(C)(C)O)n1 [AZD1775] (first compound max 1 µM, partner max 1 µM) | 0.916 | 0.856 |  | 0.717 | 0.791 | 0.579 | 1 | 0.747 | 1 | 0.875 | 1 | 0.562 | 1 | 1 | 0.923 | 1 | 0.542 | 0.773 | 0.714 | 0.963
10 | COc1nnc2ccc(N3CCC(c4ccc(OCCN5CCN(C)C(=O)[C@H]5C)cc4)CC3)nn12 [AZD5153] + CN(CC[C@H](CSC1=CC=CC=C1)NC2=C(C=C(C=C2)S(=O)(=O)NC(=O)C3=CC=C(C=C3)N4CCC(CC4)[C@H](C5=CC=CC=C5C6=CC=C(C=C6)Cl)O)S(=O)(=O)C(F)(F)F)CCO [AZD4320] (first compound max 1 µM, 7x7, partner max 1 µM) | 0.896 | 0.818 |  |  |  | 0.967 | 0.994 |  | 1 | 0.648 |  | 0.544 | 1 | 1 |  | 1 |  | 0.81 | 0.664 | 
11 | CN(CCO)CC[C@H](CSc1ccccc1)Nc1ccc(S(=O)(=O)NC(=O)c2ccc(N3CCC([C@@H](O)c4ccccc4-c4ccc(Cl)cc4)CC3)cc2)cc1S(=O)(=O)C(F)(F)F [AZD4320] + C[C@@H]1COCCN1C2=NC(=NC(=C2)C3(CC3)[S@](=N)(=O)C)C4=C5C=CNC5=NC=C4 [AZD6738] (first compound max 1 µM, 7x7, partner max 10 µM) | 0.82 | 0.954 | 0.942 | 1 | 0.745 | 0.745 | 0.95 | 0.88 | 1 | 0.764 | 0.969 | 0.842 | 1 | 1 | 0.982 | 1 |  | 0.792 | 0.729 | 0.985
12 | C[C@@H](c1ccc2nccn2c1)n1nnc2ncc(-c3cnn(C)c3)nc21 [Savolitinib] + CN(CC[C@H](CSC1=CC=CC=C1)NC2=C(C=C(C=C2)S(=O)(=O)NC(=O)C3=CC=C(C=C3)N4CCC(CC4)[C@H](C5=CC=CC=C5C6=CC=C(C=C6)Cl)O)S(=O)(=O)C(F)(F)F)CCO [AZD4320] (first compound max 1 µM, 7x7, partner max 1 µM) | 0.178 | 0.495 |  |  |  | 0.591 | 0.856 |  | 0.976 | 0.139 |  | 0.225 | 1 | 1 |  | 0.932 |  | 0.427 | 0.0682 | 

From the supplement of paper PMC11061612
